US12691101B2, “Compound and method for preventing or treating of respiratory diseases comprising the same as an active ingredient” (YONSEI UNIVERSITY, UNIVERSITY - INDUSTRY FOUNDATION (UIF), priority 2019, dated 2026)

Biological target: T1, human wild-type (WT)-pendrin (Homo sapiens, UniProt O43511)
T1 construct: expressed in transfected cells
T1 sequence (O43511 1-780): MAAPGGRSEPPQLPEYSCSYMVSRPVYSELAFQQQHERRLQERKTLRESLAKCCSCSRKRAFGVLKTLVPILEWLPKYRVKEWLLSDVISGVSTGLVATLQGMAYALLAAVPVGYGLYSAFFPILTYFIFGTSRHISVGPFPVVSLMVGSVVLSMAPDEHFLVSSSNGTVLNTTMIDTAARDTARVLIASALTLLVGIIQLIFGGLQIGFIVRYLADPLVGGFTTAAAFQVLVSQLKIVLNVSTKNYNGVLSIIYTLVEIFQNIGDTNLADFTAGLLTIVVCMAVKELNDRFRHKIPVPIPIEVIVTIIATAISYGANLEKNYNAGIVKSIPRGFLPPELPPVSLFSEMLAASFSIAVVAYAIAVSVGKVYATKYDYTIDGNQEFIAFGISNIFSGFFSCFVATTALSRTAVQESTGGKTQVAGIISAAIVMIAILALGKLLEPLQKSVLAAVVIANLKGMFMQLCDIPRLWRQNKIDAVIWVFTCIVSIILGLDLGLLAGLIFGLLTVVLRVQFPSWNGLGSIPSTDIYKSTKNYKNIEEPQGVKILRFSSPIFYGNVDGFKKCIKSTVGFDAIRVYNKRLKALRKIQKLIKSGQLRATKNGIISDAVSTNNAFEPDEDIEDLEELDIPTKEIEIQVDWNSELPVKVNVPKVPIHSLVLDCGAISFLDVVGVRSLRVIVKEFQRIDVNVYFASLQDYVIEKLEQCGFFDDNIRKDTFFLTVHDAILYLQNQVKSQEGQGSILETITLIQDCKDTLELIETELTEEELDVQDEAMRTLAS
Experiment: Pendrin-mediated Cl^−/I^− exchange activity, YFP fluorescence in CHO-K1 cells
Format: cell-based
Conditions: for inhibition at 30 µM: CHO-K1, 30 μM, read-out: Pendrin inhibitory activity at 30 μM (%); for IC50: compounds showing pendrin inhibitory activity of 50% or more at 30 μM, read-out: IC50

Row | Compound | inhibition at 30 µM | IC50
1 | Cc1ncsc1C=C1N=C(c2ccc(C(C)(C)C)cc2)OC1=O [F8, 2-(4-(tert-butyl)phenyl)-4-((4-methylthiazol-5-yl)methylene)oxazol-5 (4H)-one] | 72.5% | 20.5 ± 1.69 µM
2 | CC(C)(C)c1ccc(C2=NC(=Cc3ccc(-c4cccc(C(F)(F)F)c4)o3)C(=O)O2)cc1 [F73, 2-(4-(tert-butyl)phenyl)-4-((5-(3-(trifluoromethyl)phenyl)furan-2-yl)methylene)oxazol-5(4H)-one] | 2.9% | 
3 | CCN(CC)S(=O)(=O)c1cccc(C2=NC(=Cc3cccs3)C(=O)O2)c1 [F112, N,N-diethyl-3-(5-oxo-4-(thiophen-2-ylmethylene)-4,5-dihydrooxazol-2-yl)benzene sulfonamide] | 3.1% | 
4 | COc1ccc(C2=NC(=Cc3ccc(Cl)s3)C(=O)O2)cc1 [F99, 4-((5-Chlorothiophen-2-yl)methylene)-2-(4-methoxyphenyl)oxazol-5(4H)-one] | 2.4% | 
5 | O=C(O)C(=Cc1cccs1)NC(=O)c1ccc(Br)cc1 [G19, 2-(4-Bromobenzamido)-3-(thiophen-2-yl)acrylate] | 3.9% | 
6 | CCCCCCc1ccc(C2=NC(=Cc3ccc[nH]3)C(=O)O2)cc1 [F147, 4-((1H-pyrrol-2-yl)methylene)-2-(4-hexylphenyl)oxazol-5(4H)-one] | 3.4% | 
7 | COc1ccccc1C1=NC(=Cc2ccc(OCC(N)=O)cc2)C(=O)O1 [F128, 2-(4-((2-(2-methoxyphenyl)-5-oxooxazol-4(5H)-ylidene)methyl)phenoxy)acetamide] | 1.9% | 
8 | CC(C)c1ccc(C=C2N=C(c3cccc4ccccc34)OC2=O)cc1 [F62, 4-(4-Isopropylbenzylidene)-2-(naphthalen-1-yl)oxazol-5 (4H)-one] | 2.4% | 
9 | O=C1OC(c2ccc(OCc3ccccc3)cc2)=NC1=Cc1cccs1 [F109, 2-(4-(Benzyloxy)phenyl)-4-(thiophen-2-ylmethylene)oxazol-5(4H)-one] | 2.4% | 
10 | Cc1ccc(C=C2N=C(c3ccc(S(=O)(=O)NC(C)(C)C)cc3)OC2=O)o1 [F126, N-(tert-butyl)-4-(4-((5-methylfuran-2-yl)methylene)-5-oxo-4,5-dihydrooxazol-2-yl) benzenesulfonamide] | 2.5% | 
11 | COC(=O)C(=Cc1ccc[nH]1)NC(=O)c1ccc(C(C)(C)C)cc1 [G1, Methyl 2-(4-(tert-butyl)benzamido)-3-(1H-pyrrol-2-yl)acrylate] | 2.9% | 
12 | CCc1sc(C2=NC(=Cc3cccs3)C(=O)O2)cc1C [F103, 2-(5-Ethyl-4-methylthiophen-2-yl)-4-(thiophen-2-ylmethylene)oxazol-5(4H)-one] | 3.7% | 
13 | CCCCCCc1ccc(C(=O)NC(=Cc2cccs2)C(=O)O)cc1 [G37, 2-(4-Hexylbenzamido)-3-(thiophen-2-yl)acrylate] | 97.9% | 8.2 ± 0.79 µM
14 | CC(C)Cc1ccc(C2=NC(=Cc3ccco3)C(=O)O2)cc1 [F19, 4-(Furan-2-ylmethylene)-2-(4-isobutylphenyl)oxazol-5 (4H)-one] | 54.8% | 20.1 ± 2.46 µM
15 | COc1ccccc1C1=NC(=Cc2cnn(C(C)(C)C)c2)C(=O)O1 [F136, 4-((1-(tert-butyl)-1H-pyrazol-4-yl)methylene)-2-(2-methoxyphenyl)oxazol-5(4H)-one] | 2.4% | 
16 | CCOc1cc(C=C2N=C(c3ccc(NC(C)=O)cc3)OC2=O)ccc1OC(=O)c1cccs1 [F69, 4-((2-(4-Acetamidophenyl)-5-oxooxazol-4(5H)-ylidene)methyl)-2-ethoxyphenylthiophene-2-carboxylate] | 3.8% | 
17 | CC(C)(C)c1ccc(C2=NC(=Cc3ccncc3)C(=O)O2)cc1 [F41, 2-(4-(tert-butyl)phenyl)-4-(pyridin-4-ylmethylene)oxazol-5(4H)-one] | 27.5% | 

Row | Compound | inhibition at 30 µM | IC50
18 | O=C(O)C(=Cc1cccs1)NC(=O)c1ccc2c(c1)CCC2 [G38, 2-(2,3-Dihydro-1H-indene-5-carboxamido)-3-(thiophen-2-yl)acrylate] | 2.5% | 
19 | CCCCc1ccc(C2=NC(=Cc3cccs3)C(=O)O2)cc1 [F53, 2-(4-Butylphenyl)-4-(thiophen-2-ylmethylene)oxazol-5(4H)-one] | 3.1% | 
20 | O=C1OC(c2ccc3ccccc3c2)=NC1=Cc1cnn(Cc2ccccc2Cl)c1 [F123, 4-((1-(2-Chlorobenzyl)-1H-pyrazol-4-yl)methylene)-2-(naphthalen-2-yl)oxazol-5 (4H)-one] | 2.4% | 
21 | O=C1OC(c2ccccc2OC(F)F)=NC1=C/C=C/c1ccco1 [F135, 2-(2-(difluoromethoxy)phenyl)-4-((E)-3-(furan-2-yl)allylidene)oxazol-5 (4H)-one] | 2.8% | 
22 | CC(C)Cc1ccc(C2=NC(=Cc3ccc[nH]3)C(=O)O2)cc1 [F20, 4-((1H-pyrrol-2-yl)methylene)-2-(4-isobutylphenyl)oxazol-5 (4H)-one] | 82.9% | 2.8 ± 0.26 µM
23 | CCCCc1ccc(C(=O)NC(=Cc2ccc[nH]2)C(=O)O)cc1 [G22, 2-(4-Butylbenzamido)-3-(1H-pyrrol-2-yl)acrylate] | 89.2% | 5.3 ± 0.58 µM
24 | O=C1OC(c2ccc(-c3ccccc3)cc2)=NC1=Cc1cccnc1 [F42, 2-([1,1′-biphenyl]-4-yl)-4-(pyridin-3-ylmethylene)oxazol-5(4H)-one] | 4.2% | 
25 | CC(=O)n1cc(C=C2N=C(c3ccc(C(C)(C)C)cc3)OC2=O)c2ccccc21 [F81, 4-((1-Acetyl-1H-indol-3-yl)methylene)-2-(4-(tert-butyl)phenyl)oxazol-5 (4H)-one] | 3.4% | 
26 | COc1ccccc1C1=NC(=Cc2cccs2)C(=O)O1 [F34, 2-(2-Methoxyphenyl)-4-(thiophen-2-ylmethylene)oxazol-5 (4H)-one] | 82.8% | 8.6 ± 0.84 µM
27 | N#Cc1ccc(C2=NC(=Cc3cccs3)C(=O)O2)cc1 [F5, 4-(5-Oxo-4-(thiophen-2-ylmethylene)-4,5-dihydrooxazol-2-yl)benzonitrile] | 3.5% | 
28 | COC(=O)C(=Cc1cccs1)NC(=O)c1ccc(C(C)(C)C)cc1 [G2, Methyl 2-(4-(tert-butyl)benzamido)-3-(thiophen-2-yl)acrylate] | 3.8% | 
29 | CCCCc1ccc(C2=NC(=Cc3ccco3)C(=O)O2)cc1 [F54, 2-(4-Butylphenyl)-4-(furan-2-ylmethylene)oxazol-5 (4H)-one] | 2.6% | 
30 | O=C1OC(c2ccc(OC(F)F)cc2)=NC1=Cc1cccs1 [F55, 2-(4-(difluoromethoxy)phenyl)-4-(thiophen-2-ylmethylene)oxazol-5(4H)-one] | 3.8% | 
31 | Cn1cc(C=C(NC(=O)c2ccc(C(C)(C)C)cc2)C(=O)O)cn1 [G10, 2-(4-(tert-butyl)benzamido)-3-(1-methyl-1H-pyrazol-4-yl)acrylate] | 4.3% | 
32 | CCCCc1ccc(C(=O)NC(=Cc2ccsc2)C(=O)O)cc1 [G29] | 81.7% | 16.7 ± 1.87 µM
33 | CC(=O)Nc1ccc(C2=NC(=Cc3cc(Br)cs3)C(=O)O2)cc1 [F106, N-(4-(4-((4-bromothiophen-2-yl)methylene)-5-oxo-4,5-dihydrooxazol-2-yl)phenyl)acetamide] | 3.3% | 
34 | CC(C)(C)c1ccc(C(=O)NC(=Cc2ccco2)C(=O)O)cc1 [G5, 2-(4-(tert-butyl)benzamido)-3-(furan-2-yl)acrylate] | 60.9% | 22.6 ± 2.46 µM
